According to US8143290B2, “Chemical compounds 572” (AstraZeneca AB, priority 2006, dated 2012):
Structures can show the parent of a compound that is named as a salt.

Molecular target: T1, recombinant human GR (Homo sapiens, UniProt P04150)
T1 construct: purchased Panvera/Invitrogen P2812 (kit P2893)
T1 sequence (P04150 1-777): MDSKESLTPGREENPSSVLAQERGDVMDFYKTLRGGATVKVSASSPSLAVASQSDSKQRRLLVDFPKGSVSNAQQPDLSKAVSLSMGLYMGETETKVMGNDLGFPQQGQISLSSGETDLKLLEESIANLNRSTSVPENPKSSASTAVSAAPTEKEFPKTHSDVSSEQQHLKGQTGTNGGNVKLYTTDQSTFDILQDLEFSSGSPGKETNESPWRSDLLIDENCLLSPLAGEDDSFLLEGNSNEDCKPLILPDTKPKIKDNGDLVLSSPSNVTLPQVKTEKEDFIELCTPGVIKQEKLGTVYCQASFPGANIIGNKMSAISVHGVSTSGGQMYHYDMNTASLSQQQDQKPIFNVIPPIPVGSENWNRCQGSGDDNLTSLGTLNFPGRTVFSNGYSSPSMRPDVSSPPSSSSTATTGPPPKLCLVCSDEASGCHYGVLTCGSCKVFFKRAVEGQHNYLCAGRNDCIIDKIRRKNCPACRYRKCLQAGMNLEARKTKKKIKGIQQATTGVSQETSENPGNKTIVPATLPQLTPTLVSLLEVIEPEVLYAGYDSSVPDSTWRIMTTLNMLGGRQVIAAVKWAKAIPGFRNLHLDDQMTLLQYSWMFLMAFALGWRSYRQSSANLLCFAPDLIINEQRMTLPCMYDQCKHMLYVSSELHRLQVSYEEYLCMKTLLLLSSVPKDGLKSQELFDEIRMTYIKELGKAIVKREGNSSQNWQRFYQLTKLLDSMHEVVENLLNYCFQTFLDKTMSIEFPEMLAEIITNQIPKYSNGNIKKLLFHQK
Experiment: Human Glucocorticoid Receptor (GR) Assay, fluorescence polarization
Type: binding
Conditions: GS Red tracer, incubated 2 h at r.t., XLfit model 205, read-out: GRhuFL_FP_v2 Mean IC50
Method in brief: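 After 2 h dark incubation at r.t., polarization reported displacement of the GS Red tracer from recombinant GR, in buffer with phosphate, molybdate, EDTA, DTT and Stabilizing Peptide. Controls: dexamethasone (100%) and DMSO (0%).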

IC50 [nM] | SMILES
5 | COc1cccc([C@@H](Oc2ccc3c(cnn3-c3ccc(F)cc3)c2)[C@H](C)NC(=O)c2ncsc2C)c1 [Example 288, N-[(1R,2S)-1-[1-(4-fluorophenyl)indazol-5-yl]oxy-1-(3-methoxyphenyl)propan-2-yl]-5-methyl-1,3-thiazole-4-carboxamide]
3.9 | COc1cccc([C@@H](Oc2ccc3c(cnn3-c3ccc(F)cc3)c2)[C@H](C)NC(=O)c2scnc2C)c1 [Example 289, N-[(1R,2S)-1-[1-(4-fluorophenyl)indazol-5-yl]oxy-1-(3-methoxyphenyl)propan-2-yl]-4-methyl-1,3-thiazole-5-carboxamide]
3.1 | COc1cccc([C@@H](Oc2ccc3c(cnn3-c3ccc(F)cc3)c2)[C@H](C)NC(=O)c2nc(C)cs2)c1 [Example 290, N-[(1R,2S)-1-[1-(4-fluorophenyl)indazol-5-yl]oxy-1-(3-methoxyphenyl)propan-2-yl]-4-methyl-1,3-thiazole-2-carboxamide]
6.4 | COc1cccc([C@@H](Oc2ccc3c(cnn3-c3ccc(F)cc3)c2)[C@H](C)NC(=O)c2cc(C)c(C)s2)c1 [Example 291, N-[(1R,2S)-1-[1-(4-fluorophenyl)indazol-5-yl]oxy-1-(3-methoxyphenyl)propan-2-yl]-4,5-dimethyl-thiophene-2-carboxamide]
5.7 | COc1cccc([C@@H](Oc2ccc3c(cnn3-c3ccc(F)cc3)c2)[C@H](C)NC(=O)c2sccc2OC)c1 [Example 292, N-[(1R,2S)-1-[1-(4-fluorophenyl)indazol-5-yl]oxy-1-(3-methoxyphenyl)propan-2-yl]-3-methoxy-thiophene-2-carboxamide]
4.4 | COc1cccc([C@@H](Oc2ccc3c(cnn3-c3ccc(F)cc3)c2)[C@H](C)NC(=O)c2cc3ccccn3n2)c1 [Example 293, N-[(1R,2S)-1-[1-(4-fluorophenyl)indazol-5-yl]oxy-1-(3-methoxyphenyl)propan-2-yl]-1,9-diazabicyclo[4.3.0]nona-2,4,6,8-tetraene-8-carboxamide]
4.1 | COc1cccc([C@@H](Oc2ccc3c(cnn3-c3ccc(F)cc3)c2)[C@H](C)NC(=O)c2nc3ccccc3[nH]2)c1 [Example 294, N-[(1R,2S)-1-[1-(4-fluorophenyl)indazol-5-yl]oxy-1-(3-methoxyphenyl)propan-2-yl]-1H-benzoimidazole-2-carboxamide]
5.7 | COc1cccc([C@@H](Oc2ccc3c(cnn3-c3ccc(F)cc3)c2)[C@H](C)NC(=O)c2ccc(Cl)s2)c1 [Example 295, 5-chloro-N-[(1R,2S)-1-[1-(4-fluorophenyl)indazol-5-yl]oxy-1-(3-methoxyphenyl)propan-2-yl]thiophene-2-carboxamide]
4 | COc1cccc([C@@H](Oc2ccc3c(cnn3-c3ccc(F)cc3)c2)[C@H](C)NC(=O)c2cc3ccccc3s2)c1 [Example 296, N-[(1R,2S)-1-[1-(4-fluorophenyl)indazol-5-yl]oxy-1-(3-methoxyphenyl)propan-2-yl]benzothiophene-2-carboxamide]
8.6 | COc1cccc([C@@H](Oc2ccc3c(cnn3-c3ccc(F)cc3)c2)[C@H](C)NC(=O)c2nc3ccccc3s2)c1 [Example 297, N-[(1R,2S)-1-[1-(4-fluorophenyl)indazol-5-yl]oxy-1-(3-methoxyphenyl)propan-2-yl]benzothiazole-2-carboxamide]
15 | COc1cccc([C@@H](Oc2ccc3c(cnn3-c3ccc(F)cc3)c2)[C@H](C)NC(=O)c2sc(C(F)(F)F)cc2O)c1 [Example 298, N-[(1R,2S)-1-[1-(4-fluorophenyl)indazol-5-yl]oxy-1-(3-methoxyphenyl)propan-2-yl]-3-hydroxy-5-(trifluoromethyl)thiophene-2-carboxamide]
3.1 | COCc1ccc(C(=O)N[C@@H](C)[C@H](Oc2ccc3c(cnn3-c3ccc(F)cc3)c2)c2cccc(OC)c2)s1 [Example 299, N-[(1R,2S)-1-[1-(4-fluorophenyl)indazol-5-yl]oxy-1-(3-methoxyphenyl)propan-2-yl]-5-(methoxymethyl)thiophene-2-carboxamide]
2.4 | C[C@H](NC(=O)C(C)(C)C)[C@H](Oc1ccc2c(cnn2-c2ccc(F)cc2)c1)c1ccccc1Cl [Example 300, N-((1R,2S)-1-(2-chlorophenyl)-1-(1-(4-fluorophenyl)-1H-indazol-5-yloxy)propan-2-yl)pivalamide]
5.2 | COc1cccc([C@@H](Oc2ccc3c(cnn3-c3ccc(F)cc3)c2)[C@H](C)NC(=O)C2CCN(C(=O)OC(C)(C)C)C2)c1 (stereo partly drawn) [Example 301, tert-butyl 3-((1R,2S)-1-(1-(4-fluorophenyl)-1H-indazol-5-yloxy)-1-(3-methoxyphenyl)propan-2-ylcarbamoyl)pyrrolidine-1-carboxylate]
3.2 | COc1cccc([C@@H](Oc2ccc3c(cnn3-c3ccc(F)cc3)c2)[C@H](C)NC(=O)C(C)(F)F)c1 [Example 302, 2,2-difluoro-N-((1R,2S)-1-(1-(4-fluorophenyl)-1H-indazol-5-yloxy)-1-(3-methoxyphenyl)propan-2-yl)propanamide]
5 | COc1cccc([C@@H](Oc2ccc3c(cnn3-c3ccc(F)cc3)c2)[C@H](C)NC(=O)[C@@H](C)N)c1 [Example 303, (R)-2-amino-N-((1R,2S)-1-(1-(4-fluorophenyl)-1H-indazol-5-yloxy)-1-(3-methoxyphenyl)propan-2-yl)propanamide trifluoroacetic acid salt]
7.5 | COc1cccc([C@@H](Oc2ccc3c(cnn3-c3ccc(F)cc3)c2)[C@H](C)NC(=O)[C@H]2CCCN2)c1 [Example 304, (R)-N-((1R,2S)-1-(1-(4-fluorophenyl)-1H-indazol-5-yloxy)-1-(3-methoxyphenyl)propan-2-yl)pyrrolidine-2-carboxamide trifluoroacetic acid salt]
8.3 | C[C@H](NC(=O)C(F)(F)F)[C@@H](COc1ccc(F)cc1F)Oc1ccc2c(cnn2-c2ccc(F)cc2)c1 [Example 305, N-((2S,3S)-4-(2,4-difluorophenoxy)-3-(1-(4-fluorophenyl)-1H-indazol-5-yloxy)butan-2-yl)-2,2,2-trifluoroacetamide]
4.8 | C[C@H](NC(=O)C(F)(F)F)[C@H](Oc1ccc2c(cnn2-c2ccc(F)cc2)c1)c1ccc2c(c1)OCC2 [Example 307, N-((1R,2S)-1-(2,3-dihydrobenzofuran-6-yl)-1-(1-(4-fluorophenyl)-1H-indazol-5-yloxy)propan-2-yl)-2,2,2-trifluoroacetamide]
6.9 | COc1cc([C@@H](Oc2ccc3c(cnn3-c3ccc(F)cc3)c2)[C@H](C)NC(=O)C(F)(F)F)ccc1SC [Example 308, 2,2,2-trifluoro-N-((1R,2S)-1-(1-(4-fluorophenyl)-1H-indazol-5-yloxy)-1-(3-methoxy-4-(methylthio)phenyl)propan-2-yl)acetamide]
